Reference: US10370401B2, “Substituted nucleosides, nucleotides and analogs thereof” (Alios BioPharma, Inc., priority 2013, dated 2019)
Read-outs that look alike come from different tables or passages of the source.

Key:
Human rhinovirus 1B = assay: Picornavirus assay (CPE, CellTiter-Glo, HeLa-OHIO cells); assay type: cell-based; conditions: Rhinovirus A, 96 h
NS5B570-Con1 (Delta-21) = NS5B570-Con1 (Delta-21) (Hepatitis C virus genotype 1b, UniProt Q9WMX2); assay: biochemical; design: species or system HCV
[1] = biological target: human rhinovirus 16 polymerase (HRV16pol) (Human rhinovirus 16, UniProt Q82122); assay: biochemical
[2] = Human rhinovirus 1B, HeLa-OHIO cells, 4 d at 33° C., read-out: EC50
[3] = HRV16pol, 2.5 h at 30° C., mean of several independent experiments, read-out: IC50

Chain of human rhinovirus 16 polymerase (HRV16pol) (Q82122 1694-2153 limits assumed): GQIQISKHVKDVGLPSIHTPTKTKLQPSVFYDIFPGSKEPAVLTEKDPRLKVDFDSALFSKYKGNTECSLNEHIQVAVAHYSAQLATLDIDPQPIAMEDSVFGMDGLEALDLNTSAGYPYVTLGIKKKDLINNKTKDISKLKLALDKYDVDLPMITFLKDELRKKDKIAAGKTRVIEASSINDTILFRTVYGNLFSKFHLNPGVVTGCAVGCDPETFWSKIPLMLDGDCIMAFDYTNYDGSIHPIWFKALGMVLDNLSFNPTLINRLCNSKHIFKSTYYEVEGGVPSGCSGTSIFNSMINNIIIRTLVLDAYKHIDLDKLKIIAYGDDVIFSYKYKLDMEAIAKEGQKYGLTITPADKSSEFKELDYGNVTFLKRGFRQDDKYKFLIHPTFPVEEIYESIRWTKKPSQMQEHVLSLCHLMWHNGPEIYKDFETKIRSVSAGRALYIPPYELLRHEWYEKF

| Compound | IC50 (NS5B570-Con1 (Delta-21)) [µM] | IC50 [1, 3] [µM] | also measured |
| --- | --- | --- | --- |
| CC(C)OC(=O)OCOP1(=O)OC[C@@]2(CF)O[C@@H](n3ccc(=O)[nH]c3=O)[C@](C)(O)[C@@H]2O1 (stereo partly drawn) [Compound 158] | – | – | EC50 (Human rhinovirus 1B; [2]): 10 to 100 µM |
| C#C[C@@]1(O)[C@H](O)[C@@H](COP(=O)(O)OP(=O)(O)OP(=O)(O)O)O[C@H]1n1cnc2c(=O)[nH]c(N)nc21 [compound 203] | < 1 | – | – |
| C[C@H](NP(=O)(OC[C@@]1(F)O[C@@H](n2cnc3c(=O)[nH]c(N)nc32)[C@](C)(O)[C@@H]1O)Oc1ccccc1)C(=O)OC1CCCCC1 (stereo partly drawn) [Compound 7] | – | – | EC50 (Human rhinovirus 1B): 1 to 10 µM |
| C[C@]1(O)[C@H](n2cnc3c(N)ncnc32)O[C@](F)(COP(=O)(O)OP(=O)(O)OP(=O)(O)O)[C@H]1O [compound 240] | < 1 | < 1 | – |
| Nc1ccn([C@@H]2O[C@@](CO)(CCl)[C@@H](O)C2(F)F)c(=O)n1 [Compound 69] | – | – | EC50 (Human rhinovirus 1B; [2]): 1 to 10 µM |
| C#C[C@]1(F)[C@H](n2ccc(=O)[nH]c2=O)O[C@](F)(COP(=O)(O)OP(=O)(O)OP(=O)(O)O)[C@H]1O [compound 215] | – | < 10 | – |
| C[C@]1(N=[N+]=[N-])[C@H](n2ccc(N)nc2=O)O[C@](F)(COP(=O)(O)OP(=O)(O)OP(=O)(O)O)[C@H]1O [compound 208] | < 1 | < 10 | – |
| C=C[C@]1(COP(=O)(O)OP(=O)(O)OP(=O)(O)O)O[C@@H](n2ccc(=O)[nH]c2=O)C(F)(F)[C@@H]1O [compound 72] | 10 to 100 | < 100 | – |
| C#C[C@@]1(O)[C@H](O)[C@@](CF)(COP(=O)(O)OP(=O)(O)OP(=O)(O)O)O[C@H]1n1ccc(=O)[nH]c1=O [compound 61] | < 1 | < 1 | – |
| CC(C)OC(=O)OC(C)OP(=O)(OC[C@@]1(CF)O[C@@H](n2ccc(=O)[nH]c2=O)[C@](C)(O)[C@@H]1O)OC(C)OC(=O)OC(C)C (stereo partly drawn) [Compound 159] | – | – | EC50 (Human rhinovirus 1B; [2]): 10 to 100 µM |
| C=C[C@]1(O)[C@H](n2ccc(=O)[nH]c2=O)O[C@](F)(COP(=O)(O)OP(=O)(O)OP(=O)(O)O)[C@H]1O [compound 236] | 1 to 10 | < 10 | – |
| [N-]=[N+]=NC[C@]1(COP(=O)(O)OP(=O)(O)OP(=O)(O)O)O[C@@H](n2ccc(N)nc2=O)[C@H](F)[C@@H]1O [compound 107] | – | < 1 | – |
| CCOc1nc(N)nc2c1ncn2[C@@H]1O[C@]2(F)CO[P@@](=O)(OC(C)C)O[C@H]2[C@@]1(C)F [Compound 87] | – | – | EC50 (Human rhinovirus 1B; [2]): 1 to 10 µM |
| Nc1ncnc2c1ncn2[C@@H]1O[C@H](COP(=O)(O)OP(=O)(O)OP(=O)(O)O)[C@@H](O)[C@]1(O)CF [compound 278] | 1 to 10 | < 100 | – |
| C[C@H](NP(=O)(OC[C@@]1(F)O[C@@H](n2ccc(=O)[nH]c2=O)[C@](C)(O)[C@@H]1O)Oc1ccccc1)C(=O)OC1CCCCC1 (stereo partly drawn) [Compound 8] | – | – | EC50 (Human rhinovirus 1B): 1 to 10 µM |
| C[C@@]1(O)[C@H](O)[C@@](CF)(COP(=O)(O)OP(=O)(O)OP(=O)(O)O)O[C@H]1n1ccc2c(N)ncnc21 [compound 254] | < 1 | < 1 | – |
| C#C[C@]1(COP(=O)(O)OP(=O)(O)OP(=O)(O)O)O[C@@H](n2ccc(N)nc2=O)C(F)(F)[C@@H]1O [compound 279] | 10 to 100 | < 10 | – |
| CC[C@]1(CO)O[C@@H](n2ccc(N)nc2=O)C(F)(F)[C@@H]1O [Compound 1] | – | – | EC50 (Human rhinovirus 1B; [2]): 1 to 10 µM |
| C[C@]1(O)[C@H](n2ccc(=O)[nH]c2=O)O[C@@](COP(=O)(O)OP(=O)(O)OP(=O)(O)O)(C(F)F)[C@H]1O [compound 273] | 10 to 100 | < 10 | – |
| Nc1ccn([C@@H]2O[C@H](COP(=O)(O)OP(=O)(O)OP(=O)(O)O)[C@@H](O)[C@]2(O)CF)c(=O)n1 [compound 276] | < 1 | < 10 | – |
| C#C[C@@]1(n2cnc3c(=O)[nH]c(N)nc32)O[C@H](COP(=O)(O)OP(=O)(O)OP(=O)(O)O)[C@@H](O)[C@H]1F [compound 242] | – | < 10 | – |
| C#C[C@@]1(O)[C@H](O)[C@@H](COP(=O)(O)OP(=O)(O)OP(=O)(O)O)O[C@H]1n1cnc2c(N)ncnc21 [compound 202] | – | < 1 | – |
| C=C=C[C@@]1(O)[C@H](O)[C@@](CF)(COP(=O)(O)OP(=O)(O)OP(=O)(O)O)O[C@H]1n1ccc(=O)[nH]c1=O [compound 255] | 1 to 10 | < 10 | – |
| CC(C)OC(=O)[C@H](C)NP(=O)(OC[C@@]1(F)O[C@@H](n2ccc(=O)[nH]c2=O)[C@](C)(O)[C@@H]1O)Oc1cccc2ccccc12 (stereo partly drawn) [Compound 150] | – | – | EC50 (Human rhinovirus 1B): 1 to 10 µM |
| C=CC[C@@]1(O)[C@H](O)[C@@](CF)(COP(=O)(O)OP(=O)(O)OP(=O)(O)O)O[C@H]1n1ccc(=O)[nH]c1=O [compound 253] | 10 to 100 | < 10 | – |
| O=c1ccn([C@@H]2O[C@](F)(COP(=O)(O)OP(=O)(O)OP(=O)(O)O)[C@@H](O)[C@]2(O)CF)c(=O)[nH]1 [compound 257] | – | < 10 | – |
| C#C[C@]1(O)[C@H](n2cnc3c(N)ncnc32)O[C@](C)(COP(=O)(O)OP(=O)(O)OP(=O)(O)O)[C@H]1O [compound 59] | 1 to 10 | < 100 | – |
| C=C[C@@]1(O)[C@H](O)[C@@](CF)(COP(=O)(O)OP(=O)(O)OP(=O)(O)O)O[C@H]1n1ccc(=O)[nH]c1=O [compound 251] | – | < 10 | – |

| Compound | IC50 (NS5B570-Con1 (Delta-21)) [µM] | IC50 [1, 3] [µM] | also measured |
| --- | --- | --- | --- |
| [N-]=[N+]=NC[C@]1(CO)O[C@@H](n2ccc(N)nc2=O)[C@@H](O)[C@@H]1O [Compound 297] | – | – | EC50 (Human rhinovirus 1B; [2]): 10 to 100 µM |
| CC[C@]1(O)[C@H](n2ccc(=O)[nH]c2=O)O[C@](F)(COP(=O)(O)OP(=O)(O)OP(=O)(O)O)[C@H]1O [compound 239] | 10 to 100 | < 10 | – |
| C[C@]1(O)[C@H](n2ccc(=O)[nH]c2=O)O[C@](C)(COP(=O)(O)OP(=O)(O)OP(=O)(O)O)[C@H]1O [compound 58] | – | < 10 | – |
| CC(C)OC(=O)[C@H](C)NP(=O)(OC[C@@]1(F)O[C@@H](n2ccc(=O)[nH]c2=O)[C@](C)(O)[C@@H]1O)Oc1ccccc1 (stereo partly drawn) [Compound 5] | – | – | EC50 (Human rhinovirus 1B): 10 to 100 µM |
| N#C[C@@]1(n2ccc(=O)[nH]c2=O)O[C@](CF)(COP(=O)(O)OP(=O)(O)OP(=O)(O)O)[C@@H](O)[C@H]1O [compound 237] | – | < 1 | – |
| COCC(COC)OC(=O)OCOP(=O)(OCOC(=O)OC(COC)COC)OC[C@@]1(CF)O[C@@H](n2ccc(=O)[nH]c2=O)[C@](C)(O)[C@@H]1O [Compound 66] | – | – | EC50 (Human rhinovirus 1B; [2]): 10 to 100 µM |
| Nc1ccn([C@@H]2O[C@](CF)(COP(=O)(O)OP(=O)(O)OP(=O)(O)O)[C@@H](O)[C@]2(O)CF)c(=O)n1 [compound 258] | 10 to 100 | < 1 | – |
| C=C[C@]1(COP(=O)(O)OP(=O)(O)OP(=O)(O)O)O[C@@H](n2ccc(N)nc2=O)C(F)(F)[C@@H]1O [compound 79] | 10 to 100 | < 10 | – |
| C[C@@]1(Cl)[C@H](O)[C@@H](COP(=O)(O)OP(=O)(O)OP(=O)(O)O)O[C@H]1n1cnc2c(=O)[nH]c(N)nc21 [compound 246] | < 1 | < 1 | – |
| C[C@]1(O)[C@H](n2ccc(N)nc2=O)O[C@](C)(COP(=O)(O)OP(=O)(O)OP(=O)(O)O)[C@H]1O [compound 243] | 1 to 10 | < 10 | – |
| CC(=O)O[C@H]1[C@@](C)(O)[C@H](n2ccc(=O)[nH]c2=O)O[C@]1(F)COP(=O)(N[C@@H](C)C(=O)OC(C)C)Oc1ccc(Cl)cc1 (stereo partly drawn) [Compound 153] | – | – | EC50 (Human rhinovirus 1B): 1 to 10 µM |
| CC#C[C@@]1(O)[C@H](O)[C@@](CF)(COP(=O)(O)OP(=O)(O)OP(=O)(O)O)O[C@H]1n1ccc(=O)[nH]c1=O [compound 252] | 1 to 10 | < 10 | – |
| CCOc1nc(NC=O)nc2c1ncn2[C@@H]1O[C@](F)(COP(=O)(N[C@@H](C)C(=O)OC2CCCCC2)Oc2ccccc2)[C@@H](F)[C@@]1(C)O (stereo partly drawn) [Compound 17] | – | – | EC50 (Human rhinovirus 1B): 10 to 100 µM |
| C[C@@]1(O)[C@H](O)[C@@](CF)(CO[P@@](O)(=S)OP(=O)(O)OP(=O)(O)O)O[C@H]1n1ccc(=O)[nH]c1=O [Compound 98] | 10 to 100 | – | – |
| N#C[C@@]1(n2ccc(N)nc2=O)O[C@](CF)(COP(=O)(O)OP(=O)(O)OP(=O)(O)O)[C@@H](O)[C@H]1O [compound 238] | – | < 10 | – |
| C[C@@]1(O)[C@H](O)[C@@](CCl)(COP(=O)(O)OP(=O)(O)OP(=O)(O)O)O[C@H]1n1ccc(=O)[nH]c1=O [compound 244] | < 1 | < 10 | – |
| C[C@@]1(O)[C@H](O)[C@@](CF)(CO[P@](O)(=S)OP(=O)(O)OP(=O)(O)O)O[C@H]1n1ccc(=O)[nH]c1=O [Compound 97] | – | – | IC50 [1]: < 10 µM |
| Nc1ccn([C@@H]2O[C@@](COP(=O)(O)OP(=O)(O)OP(=O)(O)O)(C(F)F)[C@H](O)[C@@H]2F)c(=O)n1 [compound 168] | – | < 10 | – |
| CC(C)(C)C(=O)OCOP(=O)(OCOC(=O)C(C)(C)C)OC[C@@]1(F)O[C@@H](n2ccc(=O)[nH]c2=O)[C@](C)(O)[C@@H]1O [Compound 151] | – | – | EC50 (Human rhinovirus 1B; [2]): < 1 µM |
| CC(C)OC(=O)[C@H](C)NP(=O)(OC[C@@]1(F)O[C@@H](n2ccc(=O)[nH]c2=O)[C@](C)(O)[C@@H]1O)Oc1ccc(Cl)cc1 (stereo partly drawn) [Compound 152] | – | – | EC50 (Human rhinovirus 1B): 1 to 10 µM |
| C[C@@]1(Cl)[C@H](O)[C@@](CF)(COP(=O)(O)OP(=O)(O)OP(=O)(O)O)O[C@H]1n1ccc(=O)[nH]c1=O [compound 210] | 1 to 10 | – | – |
| [N-]=[N+]=NC[C@]1(COP(=O)(O)OP(=O)(O)OP(=O)(O)O)O[C@@H](n2ccc(N)nc2=O)C(F)(F)[C@@H]1O [compound 274] | – | < 10 | – |
| CCOc1nc(N)nc2c1ncn2[C@@H]1O[C@](F)(COP(=O)(N[C@@H](C)C(=O)OCC(C)(C)C)Oc2ccccc2)[C@@H](O)[C@@]1(C)O (stereo partly drawn) [Compound 33] | – | – | EC50 (Human rhinovirus 1B): < 1 µM |
| C[C@]1(F)[C@H](n2ccc(N)nc2=O)O[C@](F)(CO)[C@H]1O [Compound 18] | – | – | EC50 (Human rhinovirus 1B; [2]): 10 to 100 µM |
| [N-]=[N+]=NC[C@]1(CO)O[C@@H](n2ccc(N)nc2=O)C(F)(F)[C@@H]1O [Compound 296] | – | – | EC50 (Human rhinovirus 1B; [2]): 1 to 10 µM |
| [N-]=[N+]=NC[C@]1(COP(=O)(O)OP(=O)(O)OP(=O)(O)O)O[C@@H](n2ccc(N)nc2=O)[C@H](O)[C@@H]1O [compound 275] | – | < 10 | – |
| C[C@@]1(O)[C@H](O)[C@](CO)(CF)O[C@H]1n1ccc(N)nc1=O [Compound 40] | – | – | EC50 (Human rhinovirus 1B; [2]): 10 to 100 µM |
